Source: patent US9499553B2 (CHUGAI SEIYAKU KABUSHIKI KAISHA, priority 2013, dated 2016)
Counter-ions that a name gives are not always drawn. Like-named read-outs stand apart in the source and are kept apart here.

How the values were obtained:
[1] = target: T1, human NaPi-IIb (Homo sapiens, UniProt O95436); experiment: Inhibitory effect on 33PO4 uptake into human NaPi-IIb-expressing CHO cells; type: cell-based
T1 construct: expressed in transfected cells
T1 sequence (O95436 1-690): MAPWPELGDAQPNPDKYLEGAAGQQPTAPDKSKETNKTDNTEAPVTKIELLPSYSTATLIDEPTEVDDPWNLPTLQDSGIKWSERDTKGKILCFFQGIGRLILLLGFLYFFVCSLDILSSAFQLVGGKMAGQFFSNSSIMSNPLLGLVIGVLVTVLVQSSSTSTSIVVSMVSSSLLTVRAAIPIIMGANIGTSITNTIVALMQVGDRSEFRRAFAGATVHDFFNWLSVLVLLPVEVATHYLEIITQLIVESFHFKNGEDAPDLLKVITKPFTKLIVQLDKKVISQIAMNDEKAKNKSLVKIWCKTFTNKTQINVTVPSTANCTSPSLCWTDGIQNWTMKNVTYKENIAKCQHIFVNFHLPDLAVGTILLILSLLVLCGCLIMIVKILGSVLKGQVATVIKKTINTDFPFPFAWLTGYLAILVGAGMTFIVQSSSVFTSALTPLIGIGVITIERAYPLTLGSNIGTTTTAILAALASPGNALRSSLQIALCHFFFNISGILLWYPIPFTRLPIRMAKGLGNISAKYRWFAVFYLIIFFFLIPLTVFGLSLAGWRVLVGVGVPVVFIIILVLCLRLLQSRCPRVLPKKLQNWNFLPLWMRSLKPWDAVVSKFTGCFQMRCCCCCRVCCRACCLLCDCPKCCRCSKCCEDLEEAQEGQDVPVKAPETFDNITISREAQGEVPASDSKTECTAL
Outline: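 Stable human NaPi-IIb CHO line (G418-selected), plated and cultured overnight; ³³PO4 added in buffer A and uptake run at room temperature. Cells washed with ice-cold buffer A, then uptake counted by liquid scintillation.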

[2] = target: T2, human PiT-1 (Homo sapiens, UniProt Q8WUM9); experiment: Inhibitory effect on 33PO4 uptake into human PiT-1-expressing CHO cells; type: cell-based; details: compound 0.24, 1.2, 6 or 30 μM, pH 6.5, read-out: IC50 against 33PO4 uptake into human PiT-1-expressing cells
T2 construct: expressed in transfected cells; host or cells: CHO cells
T2 sequence (Q8WUM9 1-679): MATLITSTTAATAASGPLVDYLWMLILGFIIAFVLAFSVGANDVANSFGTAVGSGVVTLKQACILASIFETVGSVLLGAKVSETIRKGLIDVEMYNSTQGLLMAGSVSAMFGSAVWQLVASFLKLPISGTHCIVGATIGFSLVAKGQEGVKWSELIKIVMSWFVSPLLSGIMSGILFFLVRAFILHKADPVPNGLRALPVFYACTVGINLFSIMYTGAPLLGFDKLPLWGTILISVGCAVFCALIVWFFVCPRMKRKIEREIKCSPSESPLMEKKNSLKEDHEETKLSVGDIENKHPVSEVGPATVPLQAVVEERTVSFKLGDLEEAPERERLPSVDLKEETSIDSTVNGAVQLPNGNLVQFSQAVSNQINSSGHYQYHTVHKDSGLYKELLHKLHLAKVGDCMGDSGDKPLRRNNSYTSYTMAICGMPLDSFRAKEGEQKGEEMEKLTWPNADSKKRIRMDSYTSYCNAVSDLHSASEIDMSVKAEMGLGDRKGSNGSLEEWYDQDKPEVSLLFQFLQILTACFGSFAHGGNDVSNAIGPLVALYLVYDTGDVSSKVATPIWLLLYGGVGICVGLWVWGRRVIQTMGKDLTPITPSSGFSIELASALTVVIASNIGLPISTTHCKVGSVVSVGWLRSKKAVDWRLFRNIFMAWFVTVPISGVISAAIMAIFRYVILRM
Description: Test Example 3: Inhibitory Effect on ^33PO4 Uptake into Human PiT-1-Expressing Cell
(§1) CHO cells were transfected with human PiT-1 expression plasmids or empty vectors to prepare human PiT-1-expressing cells and empty vector-expressing cells. The human PiT-1-expressing cells or the empty vector-expressing cells were inoculated to a 96-well plate and incubated overnight in a CO2 incubator. […] After a given time, a 1/20 volume of buffer A containing ^33PO4 was added thereto and reacted at room temperature. After washing with ice-cold buffer A, a liquid scintillator was added to each reaction mixture, and the amount of ^33PO4 uptake was measured using TopCount. The rate of inhibition was determined according to the following expression: Rate (%) of inhibition=(1−(Amount of ^33PO4 uptake in the compound-supplemented well containing the human PiT-1-expressing cells−Amount of ^33PO4 uptake in the compound-supplemented well containing the empty vector-expressing cells)/(Amount of ^33PO4 uptake in the DMSO-supplemented well containing the human PiT-1-expressing cells −Amount of ^33PO4 uptake in the DMSO-supplemented well containing the empty vector-expressing cells))×100

[3] = target: T3, human PiT-2 (Homo sapiens, UniProt Q08357); experiment: Inhibitory effect on 33PO4 uptake into human PiT-2-expressing CHO cells; type: cell-based; details: pH 6.5, read-out: IC50 against 33PO4 uptake into human PiT-2-expressing cells
T3 construct: expressed in transfected cells; host or cells: CHO cells
T3 sequence (Q08357 1-652): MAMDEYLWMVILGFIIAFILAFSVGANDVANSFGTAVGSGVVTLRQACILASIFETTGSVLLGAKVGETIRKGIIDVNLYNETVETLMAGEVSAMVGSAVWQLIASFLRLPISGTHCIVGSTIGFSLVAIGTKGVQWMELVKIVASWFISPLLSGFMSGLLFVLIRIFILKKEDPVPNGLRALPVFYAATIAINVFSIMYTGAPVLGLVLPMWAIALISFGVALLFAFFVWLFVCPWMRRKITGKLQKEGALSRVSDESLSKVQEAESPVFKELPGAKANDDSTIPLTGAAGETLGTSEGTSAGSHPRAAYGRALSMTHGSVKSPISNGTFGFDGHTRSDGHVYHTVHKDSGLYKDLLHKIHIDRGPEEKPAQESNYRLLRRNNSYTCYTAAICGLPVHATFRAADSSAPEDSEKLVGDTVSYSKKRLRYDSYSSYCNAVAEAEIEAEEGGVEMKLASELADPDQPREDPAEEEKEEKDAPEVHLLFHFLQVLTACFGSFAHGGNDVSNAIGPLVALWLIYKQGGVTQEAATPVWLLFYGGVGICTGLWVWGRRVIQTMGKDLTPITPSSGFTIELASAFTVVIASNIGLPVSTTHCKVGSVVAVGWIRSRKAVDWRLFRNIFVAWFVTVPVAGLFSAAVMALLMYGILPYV
Description: Test Example 4: Inhibitory Effect on ^33PO4 Uptake into Human PiT-2-Expressing Cell
as §1, with “PiT-2” for “PiT-1”, “PiT-2-expressing” for “PiT-1-expressing”

[4] = system: rat small-intestinal brush border membrane vesicles; experiment: Inhibitory effect on 33PO4 uptake into rat small-intestinal brush border membrane vesicles (rapid filtration method); type: biochemical; details: 1 μM test compound; 33PO4 uptake into rat small-intestinal BBMVs, reacted for 60 seconds
Description: Test Example 1: Inhibitory Effect on ^33PO4 Uptake into Rat Small-Intestinal Brush Border Membrane Vesicles Brush border membrane vesicles (BBMVs) were prepared using the upper region of the small intestine of each Wistar female rat (4-5 weeks old). The preparation of BBMVs was performed according to the method of Murer et al. (Murer […]. Sodium/proton antiport in brush-border-membrane vesicles isolated from rat small intestine and kidney. 1976. J Am Soc Nephrol. 1998 January; 9 (1): 143-50). The ^33PO4 transport activity of the small-intestinal BBMVs was determined by the rapid filtration method. […] Then, ice-cold buffer C (110 mM NaCl, 1 mM KH2PO4, and 10 mM HEPES (pH 7.5)) was added to each reaction mixture, which was immediately suction-filtered through a Millipore filter. The filter was washed with buffer C, and each sample was then dissolved in a liquid scintillator. The amount of ^33PO4 uptake into BBMVs was measured using a liquid scintillation counter.

SMILES | IC50 ([1]; read-out: IC50) | IC50 [2] | IC50 [3] | Rate of uptake inhibition (%) (1 μM) [4] | IC50 ([1]; read-out: IC50 against 33PO4 uptake into human NaPi-IIb-expressing cells)
Cc1c(C#N)ncnc1-c1cc(C(F)(F)F)ccc1NC(=O)C1=C(O)[C@@]2(C)CCCN2N(Cc2ccc(OCCN3CCOCC3)c(F)c2F)C1=O [Example 22, (4aR)-N-[2-(6-Cyano-5-methylpyrimidin-4-yl)-4-(trifluoromethyl)phenyl]-1-[[2,3-difluoro-4-(2-morpholin-4-ylethoxy)phenyl]methyl]-4-hydroxy-4a-methyl-2-oxo-6,7-dihydro-5H-pyrrolo [1,2-b]pyridazine-3-carboxamide] | 7.9 µM |  | 3.2 µM |  | 
C[C@]12CCCN1N(Cc1cccc(F)c1F)C(=O)C(C(=O)Nc1ccc(C(F)(F)F)cc1-c1cnc(C#N)cn1)=C2O [Example 57] | 10.3 µM |  |  | 71% | 
C[C@]12CCCN1N(Cc1ccc(OCCN3CCOCC3)c(F)c1F)C(=O)C(C(=O)Nc1ccc(C(F)(F)F)nc1-c1ccccc1OC(F)(F)F)=C2O [Example 59] | 7.4 µM |  |  | 84% | 
C[C@]12CCCN1N(Cc1ccc(OCCN3CCOCC3)c(F)c1F)C(=O)C(C(=O)Nc1ccc(C(F)(F)F)nc1-c1ccc(OC(F)(F)F)cc1)=C2O [Example 60] | 8.8 µM |  |  | 78% | 
C[C@]12CCCN1N(Cc1cccc(F)c1F)C(=O)C(C(=O)Nc1ccc(C(F)(F)F)cc1-c1ccc(C#N)nc1)=C2O [Example 94] | 8.8 µM |  |  | 73% | 
COC(=O)c1cc(-c2cc(C(F)(F)F)ccc2NC(=O)C2=C(O)[C@@]3(C)CCCN3N(Cc3cccc(F)c3F)C2=O)nc(Cl)n1 [Example 98] | 10.6 µM |  |  | 53% | 
C[C@]12CCCN1N(Cc1ccc(C#CCCCC(=O)O)c(F)c1F)C(=O)C(C(=O)Nc1ccc(C(F)(F)F)cc1-c1cc(C(F)(F)F)ncn1)=C2O [Example 129, 6-[4-[[(4aR)-4-Hydroxy-4a-methyl-2-oxo-3-[[4-(trifluoromethyl)-2-[6-(trifluoromethyl)pyrimidin-4-yl]phenyl]carbamoyl]-6,7-dihydro-5H-pyrrolo[1,2-b]pyridazin-1-yl]methyl]-2,3-difluorophenyl]hex-5-ynoic acid] | 13.7 µM | 6.5 µM | 8.7 µM |  | 
CN1N(Cc2ccc(OCC[N+]34CCN(CC3)CC4)c(F)c2F)C(=O)C(C(=O)Nc2ccc(C(F)(F)F)cc2-c2cc(C(F)(F)F)ncn2)=C(O)C12CCCC2 [Example 415, 1-(2-(2,3-Difluoro-4-((10-hydroxy-6-methyl-8-oxo-9-((4-(trifluoromethyl)-2-(6-(trifluoromethyl)pyrimidin-4-yl)phenyl)carbamoyl)-6,7-diazaspiro[4.5]dec-9-en-7-yl)methyl)phenoxy)ethyl)-1,4-diazabicyclo[2.2.2]octan-1-ium formate] |  |  |  | 21% | 18.5 µM

The remaining compounds from weak to strong by IC50 ([1]; read-out: IC50), led by results:

IC50 ([1]; read-out: IC50) | IC50 [2] | IC50 [3] | SMILES | Rate of uptake inhibition (%) (1 μM) [4] | IC50 ([1]; read-out: IC50 against 33PO4 uptake into human NaPi-IIb-expressing cells)
7.3 µM | 1.9 µM | 2.7 µM | COCCN(C)CCOc1ccc(CN2C(=O)C(C(=O)Nc3ccc(C(F)(F)F)cc3-c3cc(C(F)(F)F)ncn3)=C(O)C3(CCC3)N2C)c(F)c1F [Example 13, 6-[[2,3-Difluoro-4-[2-[2-methoxyethyl(methyl)amino]ethoxy]phenyl]methyl]-9-hydroxy-5-methyl-7-oxo-N-[4-(trifluoromethyl)-2-[6-(trifluoromethyl)pyrimidin-4-yl]phenyl]-5,6-diazaspiro[3.5]non-8-ene-8-carboxamide] |  | 
6.4 µM |  |  | CSc1ncc(-c2cc(C(F)(F)F)ccc2NC(=O)C2=C(O)[C@@]3(C)CCC(C)(C)N3N(Cc3cccc(F)c3F)C2=O)cn1 [Example 62] | 73% | 
5.6 µM |  |  | CC1(C)CC[C@]2(C)C(O)=C(C(=O)Nc3ccc(C(F)(F)F)cc3-c3ccc(C(F)(F)F)nc3)C(=O)N(Cc3cccc(F)c3F)N12 [Example 61] | 71% | 
5.4 µM |  |  | C[C@]12CCCN1N(Cc1cccc(F)c1F)C(=O)C(C(=O)Nc1ccc(C(F)(F)F)cc1-c1cnc(C#N)nc1)=C2O [Example 95] | 80% | 
2.8 µM |  |  | CSc1ncc(-c2cc(C(F)(F)F)ccc2NC(=O)C2=C(O)[C@@]3(C)CCCN3N(Cc3cccc(F)c3F)C2=O)cn1 [Example 96] | 83% | 
2.7 µM |  |  | CSc1ccc(-c2cc(C(F)(F)F)ccc2NC(=O)C2=C(O)[C@@]3(C)CCCN3N(Cc3cccc(F)c3F)C2=O)cn1 [Example 97] | 89% | 
